Data on one compound can be found in PMC7838189, “Natural podophyllotoxin analog 4DPG attenuates EMT and colorectal cancer progression via activation of checkpoint kinase 2” (Cell Death Discovery, 2021).

Test [1] deals with HCT-116/5-FU-R cells. Kind of test: Western blotting of Chk2 and EMT markers after 4DPG. The format is cell-based. As to conditions: 48 h. An excerpt:
(§1) 4DPG, a podophyllotoxin class of natural product anticancer compound (Supplementary Fig. S2A) has been recently described by our research group for its potent antitumor and anti-metastatic properties against aggressive cancers[31],[32]. Further, 4DPG augments phosphorylation and activation of Chk2 (Thr68) leading to suppression of EMT and invasiveness of p53-defective cancer cells. To investigate the effect of 4DPG on phosphorylation and expression levels of Chk2 in HCT-116/5-FU-R, SW-620/5-FU-R, and HT-29/5-FU-R cells, we treated these cells for 48 h with increasing concentrations of the compound, and whole-cell lysates were subjected to western blotting analysis. […] To determine the effect of 4DPG on the invasion abilities of these 5-FU-R cells, we performed in situ fluorescent gelatin degradation assay following our pre-standardized protocol[31],[37]. In physiological conditions, this assay mimics the extracellular matrix degradation by aggressive tumor cells undergoing invasion–metastasis process.
(§2) Fig. 2 4DPG activates Chk2 and attenuates EMT in 5-FU-R CRC cells. A Western blotting analysis results portraying protein expression of p-Chk2 (Thr68) and Chk2 in HCT-116/5-FU-R and SW-620/5-FU-R cells in response to increasing concentrations of 4DPG, treated for 48 h. β-Actin expression was considered as endogenous loading control. B Densitometry analysis showing relative protein expression of western blot bands presented above. n = 3, error bars: mean ± SD; ***P < 0.001. C Western blots depicting protein expression of EMT markers in HCT-116/5-FU-R and SW-620/5-FU-R cells in response to increasing concentrations of 4DPG, treated for 48 h. β-Actin expression was considered as endogenous loading control. […] E Immunocytochemistry results displaying the protein expression levels of Vimentin in HCT-116/5-FU-R and SW-620/5-FU-R cells, treated with vehicle and/or 4DPG (300 nM) for 48 h. Scale bars: 50 µm. F In situ fluorescent gelatin degradation assay results showing the invadopodia/footprints of invaded SW-620/5-FU-R cells treated with vehicle and/or 4DPG at the indicated concentration for 48 h. Blue stains over the green background display DAPI staining of nuclei of cells. G Quantification of the area of degradation through Image J software. n = 3, error bars, mean ± SD; ***P < 0.001.
(§3) We adhered to the previously published protocol for western blotting. To sum up, cells were exposed to the respective treatments (mentioned in figure legends). Post-treatment, cells were lysed with cell lysis buffer, and cell lysates were collected after centrifugation. Bradford assay was performed to quantify the protein concentration. Equal amount of protein was taken from each sample to carry out the western blot analysis. SDS-PAGE was employed to separate the proteins that were later transferred onto PVDF membranes (Millipore, Billerica, MA). Next, the membranes were blocked with 5% skim milk and subsequently incubated with the specific primary antibodies (1:1000 dilution), either for 3 h at room temperature or overnight at 4 °C. Later, the blots were washed thoroughly with TBST and probed with the respective secondary antibodies (1:2000 dilution) coupled with horseradish peroxidase for 1 h. Following thorough washing, the membranes were visualized using enhanced chemiluminescence reagent (Millipore) and captured onto Biomax light film (The Eastman Kodak Co., Rochester, NY).
(In general: In western blotting, separated proteins are transferred to a membrane and probed.)

The test system of test [2] is SW-620/5-FU-R cells. The description is as above. As to conditions: 48 h. Type of test: cell-based.
Excerpt: as §1, §2, §3

For test [3], the system named is SW-620/5-FU-R cells. Nature of the test: Cellular fractionation and western blotting of p53 and Vimentin. Type of test: cell-based. The note with it: 300 nM, 48 h, vs vehicle. On the procedure: Fig. 3 Chk2-dependent role of 4DPG in modulating p53 and repressing Vimentin expression in 5-FU-R cells. A Immunocytochemistry results showing the Vimentin expression level in SW-620/5-FU-R cells treated/transfected with scramble, SiChk2, scramble plus 4DPG, SiChk2 plus 4DPG, vehicle, PV1019, 4DPG, and PV1019 plus 4DPG for 48 h. Scale bars: 50 µm. […] C Matrigel invasion assay results showing invaded HCT-116/5-FU-R and SW-620/5-FU-R cells following 48 h of transient transfection with GFP and GFP-Chk2 plasmid construct. Scale bars: 50 µm. D Quantification of the number of invaded cells per field from the above experimental conditions. n = 3, error bars, mean ± SD; *P < 0.05, ***P < 0.001. E Immunocytochemistry results displaying Vimentin expression levels in HCT-116/5-FU-R and SW-620/5-FU-R cells after 48 h of transient transfection with pCDNA3 and/or HA-Chk2 plasmid construct. Scale bars: 50 µm. F Immunoprecipitation with Vimentin or p53 followed by western blotting analysis of p53 in SW-620/5-FU-R cells treated with vehicle and/or 4DPG (300 nM) for 48 h. G Cytosolic (left panel) and nuclear (right panel) extracts of SW-620/5-FU-R cells treated with vehicle and/or 4DPG (300 nM) for 48 h showing protein expression of Vimentin and p53. Tubulin and lamin expression was considered as endogenous loading controls for cytosolic and nuclear fractions, respectively.
Moreover, to gain mechanistic insights into how 4DPG-induced activation of Chk2 suppresses EMT and invasiveness, we examined the downstream substrates of Chk2. Tumor suppressor p53 acts as a direct substrate of Chk2 that regulates cell cycle, DNA repair, or apoptosis of cancer cells in response to DNA damage[27],[39]. We attempted to investigate whether there any molecular interaction takes place between Vimentin and p53 in these 5-FU-R cells. Our immunoprecipitation analysis unveiled that 4DPG potentially interrupted the association of Vimentin and p53 in SW-620/5-FU-R cells. […] Since 4DPG disrupted the Vimentin–p53 association, we were curious to see the consequences on p53 expression in various cellular compartments. We separated cytosolic and nuclear fractions of SW-620/5-FU-R cells treated with vehicle and/or 4DPG and conducted western blotting analysis considering relevant loading controls.
SW-620/5-FU-R cells seeded in 90-mm Petri dishes were treated with vehicle and/or 4DPG for 48 h, following overnight incubation. Cells were then harvested, washed with PBS; cytosolic and nuclear extracts were prepared following our established protocol[37],[56].

Test [4] has as its system tumor tissues of orthotopic rat colorectal carcinoma. Kind of test: Western blotting of tumor tissues. The format is in vivo, Wistar rats. The note with it: 4DPG-treated group vs saline. On the procedure:
as §3

[5] abbreviates: increasing concentrations, immunoblot.

With `COc1cc([C@@H]2c3cc4c(cc3C[C@H]3COC(=O)[C@@H]32)OCO4)cc(OC)c1O[C@@H]1O[C@H](CO)[C@@H](O)[C@H](O)[C@H]1O` [4DPG, 4′-demethyl-deoxypodophyllotoxin glucoside], the “increase in p-Chk2 (Thr68) level” value in test [1] (300 nM (sub-toxic), vs vehicle) was determined as 12 fold. For the same compound, in test [1] (vs vehicle), the “expression of Chk2 (total)” value is listed as “did not alter significantly”. In addition, in test [1] (increasing concentrations), the “amplification of E-cadherin” value is reported as no more than 12.8 fold and the “amplification of TIMP-1” value was “up to 12.5 fold”. Moreover, in test [1] (setting [5]), the “p-Vimentin (ser38), Vimentin, Twist1 and MMP-2 expression” value is listed as “remarkable downregulation”. Moreover, the “increase in p-Chk2 (Thr68) level” value in test [2] (300 nM (sub-toxic), vs vehicle) amounted to 11.2 fold. Besides, in test [2] (vs vehicle), the “expression of Chk2 (total)” value is “did not alter significantly”. Moreover, in test [2] (increasing concentrations), the “amplification of E-cadherin” value was no more than 10.2 fold and the “amplification of TIMP-1” value is recorded as no more than 7.2 fold. Further, the “p-Vimentin (ser38), Vimentin, Twist1 and MMP-2 expression” value in test [2] (setting [5]) was “remarkable downregulation”. In test [3], the “augmentation in p53 expression, cytosolic fraction” value is given as 1.65 fold; the “decrease in Vimentin level, nuclear fraction” value came to 20 fold; the “downregulation of Vimentin level, cytosolic fraction” value turned out to be 2.2 fold; the “increase in p53, nuclear fraction” value came to 2.2 fold. In addition, in test [4], the “activation of p53 in tumor tissues” value is 5.82 fold, the “activation of p-Chk2 (Thr68) in tumor tissues” value is reported as 3.54 fold, the “downmodulation of Vimentin in tumor tissues” value stood at 8.3 fold and the “downmodulation of p-Vimentin (ser38) in tumor tissues” value is on record as 18.2 fold.
